Measured values taken from US9938261B2, “Heterocyclic compounds and methods of use thereof” (AMBIT BIOSCIENCES CORPORATION, priority 2011, dated 2018).

Columns and labels:
[1] = molecular target: T1, FLT3 (Homo sapiens, UniProt P36888); experiment: Competition binding assay, FLT3 Kd; conditions: competition binding
T1 construct: made in house
T1 sequence (P36888 27-993): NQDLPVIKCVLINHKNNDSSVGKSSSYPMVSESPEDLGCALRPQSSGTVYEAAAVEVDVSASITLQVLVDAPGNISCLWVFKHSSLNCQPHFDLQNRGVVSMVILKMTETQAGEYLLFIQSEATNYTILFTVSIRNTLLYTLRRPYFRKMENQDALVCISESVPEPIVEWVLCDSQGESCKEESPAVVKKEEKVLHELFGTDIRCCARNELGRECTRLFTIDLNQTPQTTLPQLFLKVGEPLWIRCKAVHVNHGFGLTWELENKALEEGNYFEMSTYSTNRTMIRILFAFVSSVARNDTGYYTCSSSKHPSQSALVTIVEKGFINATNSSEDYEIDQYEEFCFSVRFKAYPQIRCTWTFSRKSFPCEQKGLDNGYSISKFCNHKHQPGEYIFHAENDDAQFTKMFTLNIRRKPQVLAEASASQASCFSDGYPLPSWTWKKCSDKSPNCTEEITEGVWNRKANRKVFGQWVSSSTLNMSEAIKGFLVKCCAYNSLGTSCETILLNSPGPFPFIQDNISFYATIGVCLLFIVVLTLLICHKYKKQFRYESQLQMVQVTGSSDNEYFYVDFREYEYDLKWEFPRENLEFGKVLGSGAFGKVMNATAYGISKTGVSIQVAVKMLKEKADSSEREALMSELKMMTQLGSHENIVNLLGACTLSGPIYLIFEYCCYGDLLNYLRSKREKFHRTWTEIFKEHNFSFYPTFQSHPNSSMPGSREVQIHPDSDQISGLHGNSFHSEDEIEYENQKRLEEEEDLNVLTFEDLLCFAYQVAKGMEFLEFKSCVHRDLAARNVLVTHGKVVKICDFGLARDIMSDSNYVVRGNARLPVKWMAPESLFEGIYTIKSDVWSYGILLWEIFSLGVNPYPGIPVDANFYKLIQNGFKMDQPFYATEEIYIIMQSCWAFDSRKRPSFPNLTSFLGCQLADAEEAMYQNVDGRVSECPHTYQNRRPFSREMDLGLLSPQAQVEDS
Method in brief: (§1)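 Phage-fused or HEK-293/DNA-tagged kinase + ligand-coated streptavidin beads + compound, 1 h RT with shaking. Wash, elute with free ligand 30 min RT, qPCR of eluted kinase. Kd: 11-point 3-fold series.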

[2] = molecular target: T2, CSF1R (Homo sapiens, UniProt P07333); experiment: Competition binding assay, CSF1R Kd; parameters: made in house; conditions: competition binding
T2 sequence (P07333 20-972): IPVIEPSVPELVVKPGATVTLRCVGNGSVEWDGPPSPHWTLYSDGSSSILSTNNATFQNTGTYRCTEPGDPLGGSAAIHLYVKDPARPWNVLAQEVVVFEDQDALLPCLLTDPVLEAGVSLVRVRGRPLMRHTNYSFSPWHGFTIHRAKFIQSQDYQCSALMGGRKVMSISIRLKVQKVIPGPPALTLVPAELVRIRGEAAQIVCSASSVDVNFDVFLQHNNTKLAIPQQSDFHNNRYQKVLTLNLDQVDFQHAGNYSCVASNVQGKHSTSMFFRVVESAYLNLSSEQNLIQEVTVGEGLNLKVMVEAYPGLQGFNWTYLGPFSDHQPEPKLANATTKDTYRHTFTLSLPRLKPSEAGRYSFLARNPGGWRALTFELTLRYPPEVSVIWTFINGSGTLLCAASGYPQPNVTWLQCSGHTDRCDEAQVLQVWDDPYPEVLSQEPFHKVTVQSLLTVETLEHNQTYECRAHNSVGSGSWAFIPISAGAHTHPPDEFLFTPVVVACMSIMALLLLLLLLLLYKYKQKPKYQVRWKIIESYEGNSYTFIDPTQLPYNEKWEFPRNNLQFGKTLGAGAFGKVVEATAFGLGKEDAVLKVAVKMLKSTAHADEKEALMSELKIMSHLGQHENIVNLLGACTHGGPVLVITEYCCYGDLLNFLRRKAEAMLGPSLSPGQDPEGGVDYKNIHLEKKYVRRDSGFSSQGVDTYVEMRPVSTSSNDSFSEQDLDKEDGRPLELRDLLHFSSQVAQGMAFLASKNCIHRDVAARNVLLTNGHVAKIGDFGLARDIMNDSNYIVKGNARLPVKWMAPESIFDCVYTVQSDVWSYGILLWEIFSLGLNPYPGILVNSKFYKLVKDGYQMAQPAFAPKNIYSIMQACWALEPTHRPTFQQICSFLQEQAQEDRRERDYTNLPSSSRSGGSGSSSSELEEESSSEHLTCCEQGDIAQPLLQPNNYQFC
Method in brief: as §1

[3] = molecular target: T3, PDGFRβ (Homo sapiens, UniProt P09619); experiment: Competition binding assay, PDGFRβ Kd; conditions: competition binding
T3 construct: made in house
T3 sequence (P09619 33-1106): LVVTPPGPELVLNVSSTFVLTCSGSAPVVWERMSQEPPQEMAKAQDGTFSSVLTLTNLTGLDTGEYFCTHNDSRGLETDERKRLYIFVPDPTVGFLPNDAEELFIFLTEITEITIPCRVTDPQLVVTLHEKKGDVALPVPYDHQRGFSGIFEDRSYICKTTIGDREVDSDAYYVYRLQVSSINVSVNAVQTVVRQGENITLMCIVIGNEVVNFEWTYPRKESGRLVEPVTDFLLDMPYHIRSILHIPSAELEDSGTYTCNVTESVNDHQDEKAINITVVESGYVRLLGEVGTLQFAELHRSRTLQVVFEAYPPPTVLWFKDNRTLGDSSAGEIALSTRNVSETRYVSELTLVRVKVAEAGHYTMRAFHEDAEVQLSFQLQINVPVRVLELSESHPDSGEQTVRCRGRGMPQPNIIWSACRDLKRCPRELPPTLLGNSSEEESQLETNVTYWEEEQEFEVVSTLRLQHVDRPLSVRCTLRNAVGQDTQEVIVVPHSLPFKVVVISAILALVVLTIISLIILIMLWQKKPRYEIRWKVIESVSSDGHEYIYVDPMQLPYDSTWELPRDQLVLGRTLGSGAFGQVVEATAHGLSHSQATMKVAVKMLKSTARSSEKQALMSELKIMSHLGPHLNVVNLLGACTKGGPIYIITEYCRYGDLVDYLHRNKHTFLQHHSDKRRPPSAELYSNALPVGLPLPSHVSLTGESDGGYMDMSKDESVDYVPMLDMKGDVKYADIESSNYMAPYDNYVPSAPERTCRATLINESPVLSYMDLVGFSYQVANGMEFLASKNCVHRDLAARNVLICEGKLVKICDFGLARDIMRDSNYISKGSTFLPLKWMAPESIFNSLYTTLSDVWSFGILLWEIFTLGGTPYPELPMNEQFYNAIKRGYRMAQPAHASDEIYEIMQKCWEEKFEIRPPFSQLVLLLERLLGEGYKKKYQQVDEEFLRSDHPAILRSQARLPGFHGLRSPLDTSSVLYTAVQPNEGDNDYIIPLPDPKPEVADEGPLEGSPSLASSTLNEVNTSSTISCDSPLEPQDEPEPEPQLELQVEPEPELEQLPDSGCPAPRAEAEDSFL
Method in brief: as §1

[4] = molecular target: T2, CSF1R; experiment: HEK293 CSF1R phosphorylation MSD assay; type: cell-based; parameters: expressed in transfected cells; host or cells: HEK293; conditions: HEK293 cells, M-CSF stimulated CSF1R phosphorylation, MSD; read-out: HEK293 pCSF1R M-CSF MSD:IC50
Method in brief: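 Ligand-induced CSF1R autophosphorylation was measured by MSD sandwich assay: CSF1R-FKBP from lysates captured via FK506, anti-phosphotyrosine readout. Cells were exposed to compound for 2 h (9-point, half-log, 0.5% DMSO) before 5 min 50 ng/mL M-CSF. Reported IC50 is the mean of duplicate-plate IC50s relative to DMSO control.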

Compound | Kd [1] [µM] | Kd [2] [µM] | Kd [3] [µM] | IC50 [4] [µM]
OC[C@@H]1CCCC[C@H]1Nc1nc2ccc(Cn3cnc4cc(Br)cnc43)cc2s1 [Example 133, ((1R,2R)-2-((6-((6-bromo-3H-imidazo[4,5-b]pyridin-3-yl)methyl)benzo[d]thiazol-2-yl)amino)cyclohexyl)methanol] | 1 to 5 | 0.005 to 0.02 | ≤ 0.05 | 0.05 to 0.2
Cc1ccc2c(c1)ncn2Cc1ccc2nc(N[C@@H]3CCCC[C@H]3O)sc2c1 [Example 127, (1R,2R)-2-((6-((5-methyl-1H-benzo[d]imidazol-1-yl)methyl)benzo[d]thiazol-2-yl)amino)cyclohexanol] | 1 to 5 | 0.005 to 0.02 | ≤ 0.05 | 0.05 to 0.2
O[C@@H]1CCCC[C@H]1Nc1nc2c(Cl)cc(Cc3cnc4ccc(N5CCOCC5)nn34)cc2s1 [Example 156, (1R,2R)-2-((4-chloro-6-((6-morpholinoimidazo[1,2-b]pyridazin-3-yl)methyl)benzo[d]thiazol-2-yl)amino)cyclohexanol] | 1 to 5 | 0.005 to 0.02 | 0.5 to 2 | 0.2 to 0.5
O[C@@H]1CCCC[C@H]1Nc1nc2ccc(Cc3cnc4ccc(-n5cccn5)cn34)cc2s1 [Example 159, (1R,2R)-2-((6-((6-(1H-pyrazol-1-yl)imidazo[1,2-a]pyridin-3-yl)methyl)benzo[d]thiazol-2-yl)amino)cyclohexanol] | 1 to 5 | 0.005 to 0.02 | 0.5 to 2 | 0.2 to 0.5
Cn1nnc(-c2ccc3c(c2)ncn3Cc2ccc3nc(N[C@@H]4CCCC[C@H]4O)sc3c2)n1 [Example 227, (1R,2R)-2-((6-((5-(2-methyl-2H-tetrazol-5-yl)-1H-benzo[d]imidazol-1-yl)methyl)benzo[d]thiazol-2-yl)amino)cyclohexanol] | 1 to 5 | 0.005 to 0.02 | 0.05 to 0.5 | ≤ 0.05
N#Cc1ccc2c(c1)ncn2Cc1ccc2nc(N[C@@H]3CCCC[C@H]3O)oc2c1 [Example 170, 1-((2-(((1R,2R)-2-hydroxycyclohexyl)amino)benzo[d]oxazol-6-yl)methyl)-1H-benzo[d]imidazole-5-carbonitrile] | > 5 | > 0.05 | 0.5 to 2 | > 0.5
O[C@H]1CCCC[C@H]1Nc1nc2ccc(Cn3cnc4cc(F)cnc43)cc2s1 [Example 162, (1S,2R)-2-((6-((6-fluoro-3H-imidazo[4,5-b]pyridin-3-yl)methyl)benzo[d]thiazol-2-yl)amino)cyclohexanol] | 1 to 5 | ≤ 0.005 | 0.05 to 0.5 | 0.05 to 0.2
O[C@@H]1CCCC[C@H]1Nc1nc2ccc(Cn3cnc4cc(F)c(F)cc43)cc2s1 [Example 128, (1R,2R)-2-((6-((5,6-difluoro-1H-benzo[d]imidazol-1-yl)methyl)benzo[d]thiazol-2-yl)amino)cyclohexanol] | > 5 | 0.005 to 0.02 | 0.05 to 0.5 | 0.2 to 0.5
O=C(c1ccn2c(Cc3ccc4nc(N[C@@H]5CCCC[C@H]5O)sc4c3)cnc2c1)N1CCCC1 [Example 223, (3-((2-(((1R,2R)-2-hydroxycyclohexyl)amino)benzo[d]thiazol-6-yl)methyl)imidazo[1,2-a]pyridin-7-yl)(pyrrolidin-1-yl)methanone] | 1 to 5 | 0.005 to 0.02 | 0.05 to 0.5 | 0.05 to 0.2
O[C@H]1CC[C@H](Nc2nc3ccc(Cn4cnc5cc(F)cnc54)cc3s2)CC1 [Example 163, trans-4-((6-((6-fluoro-3H-imidazo[4,5-b]pyridin-3-yl)methyl)benzo[d]thiazol-2-yl)amino)cyclohexanol] | > 5 | > 0.05 | 0.05 to 0.5 | > 0.5
CS(=O)(=O)c1ccc2c(c1)ncn2Cc1ccc2nc(N[C@@H]3CCCC[C@H]3O)sc2c1 [Example 112, (1R,2R)-2-((6-((5-(methylsulfonyl)-1H-benzo[d]imidazol-1-yl)methyl)benzo[d]thiazol-2-yl)amino)cyclohexanol] | 1 to 5 | 0.02 to 0.05 | 0.5 to 2 | 0.2 to 0.5
CS(=O)(=O)c1ccc2ncn(Cc3ccc4nc(N[C@@H]5CCCC[C@H]5O)sc4c3)c2c1 [Example 113, (1R,2R)-2-((6-((6-(methylsulfonyl)-1H-benzo[d]imidazol-1-yl)methyl)benzo[d]thiazol-2-yl)amino)cyclohexanol] | 1 to 5 | 0.02 to 0.05 | > 2 | 0.2 to 0.5
O=c1c(N2CCOCC2)nccn1Cc1ccc2nc(N[C@@H]3CCCC[C@H]3O)sc2c1 [Example 222, 1-((2-(((1R,2R)-2-hydroxycyclohexyl)amino)benzo[d]thiazol-6-yl)methyl)-3-morpholinopyrazin-2(1H)-one] | > 5 | 0.02 to 0.05 | 0.5 to 2 | > 0.5
O[C@@H]1CCCC[C@H]1Nc1nc2ccc(Cn3cnc4cccnc43)c(F)c2s1 [Example 164, (1R,2R)-2-((6-((3H-imidazo[4,5-b]pyridin-3-yl)methyl)-7-fluorobenzo[d]thiazol-2-yl)amino)cyclohexanol] | 1 to 5 | 0.005 to 0.02 | 0.5 to 2 | > 0.5
COc1ccc2ncc(Cc3ccc4nc(N[C@@H]5CCCC[C@H]5O)sc4c3)n2c1 [Example 165, (1R,2R)-2-((6-((6-methoxyimidazo[1,2-a]pyridin-3-yl)methyl)benzo[d]thiazol-2-yl)amino)cyclohexanol] | > 5 | 0.005 to 0.02 | 0.5 to 2 | > 0.5

Continued, values first:

Kd [1] [µM] | Kd [2] [µM] | Kd [3] [µM] | IC50 [4] [µM] | Compound
0.2 to 1 | 0.005 to 0.02 | 0.05 to 0.5 | 0.05 to 0.2 | CNC(=O)c1ccc2c(c1)ncn2Cc1ccc2nc(N[C@@H]3CCCC[C@H]3O)sc2c1 [Example 173, 1-((2-(((1R,2R)-2-hydroxycyclohexyl)amino)benzo[d]thiazol-6-yl)methyl)-N-methyl-1H-benzo[d]imidazole-5-carboxamide]
0.2 to 1 | ≤ 0.005 | ≤ 0.05 | ≤ 0.05 | O[C@@H]1CCCC[C@H]1Nc1nc2ccc(Cn3cnc4cc(-n5cccn5)cnc43)cc2s1 [Example 141, (1R,2R)-2-((6-((6-(1H-pyrazol-1-yl)-3H-imidazo[4,5-b]pyridine-3-yl)methyl)benzo[d]thiazol-2-yl)amino)cyclohexanol]
0.2 to 1 | 0.02 to 0.05 | 0.05 to 0.5 | 0.2 to 0.5 | N#Cc1cc2ncn(Cc3ccc4nc(N[C@@H]5CCCC[C@H]5O)sc4c3)c2nc1C#N [Example 139, 3-((2-(((1R,2R)-2-hydroxycyclohexyl)amino)benzo[d]thiazol-6-yl)methyl)-3H-imidazo[4,5-b]pyridine-5,6-dicarbonitrile]
0.2 to 1 | 0.005 to 0.02 | 0.05 to 0.5 | 0.05 to 0.2 | C#Cc1ccc2ncn(Cc3ccc4nc(N[C@@H]5CCCC[C@H]5O)sc4c3)c2c1 [Example 122, (1R,2R)-2-((6-((6-ethynyl-1H-benzo[d]imidazol-1-yl)methyl)benzo[d]thiazol-2-yl)amino)cyclohexanol]
0.2 to 1 | 0.005 to 0.02 | ≤ 0.05 | 0.05 to 0.2 | N#Cc1cnc2c(c1)ncn2Cc1ccc2nc(N[C@@H]3CCCC[C@H]3O)oc2c1 [Example 124, 3-((2-(((1R,2R)-2-hydroxycyclohexyl)amino)benzo[d]oxazol-6-yl)methyl)-3H-imidazo[4,5-b]pyridine-6-carbonitrile]
≤ 0.2 | ≤ 0.005 | 0.05 to 0.5 | ≤ 0.05 | O[C@@H]1CCCC[C@H]1Nc1nc2ccc(Cc3cnc4ccc(N5CCOCC5)nn34)cc2s1 [Example 155, (1R,2R)-2-((6-((6-morpholinoimidazo[1,2-b]pyridazin-3-yl)methyl)benzo[d]thiazol-2-yl)amino)cyclohexanol]
